{"source": "ChEMBL document CHEMBL1139739", "about": "“Inhibition of Tpl2 kinase and TNFalpha production with quinoline-3-carbonitriles for the treatment of rheumatoid arthritis” (Bioorg Med Chem Lett, 2006)", "note": "Activity calls are given as the source filed them. The calls are words filed in the database; no cut-off is given here."}
{"target": "CaM kinase II (Homo sapiens) (UniProt Q13557+Q13555+Q13554+Q9UQM7)", "experiment": "Inhibition of CAMK2", "type": "protein assay", "conditions": "not given"}
{"smiles": "N#Cc1cnc2ccc(NCc3c[nH]cn3)cc2c1Nc1ccc(F)c(Cl)c1", "Activity": "inactive"}
{"target": "Protein kinase C (PKC) (Homo sapiens) (UniProt O94806+P41743+P17252+P05129+Q05655+P05771+Q05513+Q02156+P24723+Q15139+Q04759)", "experiment": "Inhibition of PKC", "type": "protein assay", "conditions": "not given", "units": {"Inhibition": "µM"}}
{"smiles": "N#Cc1cnc2ccc(NCc3c[nH]cn3)cc2c1Nc1ccc(F)c(Cl)c1", "Inhibition": "> 10"}
{"target": "Ribosomal protein S6 kinase beta-1 (Homo sapiens) (UniProt P23443)", "sequence (P23443 whole entry, looked up)": "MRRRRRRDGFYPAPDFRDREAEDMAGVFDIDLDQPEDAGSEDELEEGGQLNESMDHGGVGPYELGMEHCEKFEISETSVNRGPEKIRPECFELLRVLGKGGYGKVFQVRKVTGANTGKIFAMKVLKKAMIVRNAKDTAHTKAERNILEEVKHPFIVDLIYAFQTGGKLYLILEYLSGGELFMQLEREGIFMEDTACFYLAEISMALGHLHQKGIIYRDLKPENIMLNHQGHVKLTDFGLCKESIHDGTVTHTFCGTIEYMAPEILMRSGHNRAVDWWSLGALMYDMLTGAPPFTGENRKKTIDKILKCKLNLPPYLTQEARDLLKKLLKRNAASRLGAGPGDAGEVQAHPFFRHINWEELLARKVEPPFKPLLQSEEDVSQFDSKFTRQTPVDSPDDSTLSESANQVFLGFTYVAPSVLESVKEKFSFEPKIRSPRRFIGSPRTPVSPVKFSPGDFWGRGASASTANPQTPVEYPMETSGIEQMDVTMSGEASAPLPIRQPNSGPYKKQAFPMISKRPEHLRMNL", "experiment": "Inhibition of S6 kinase", "conditions": "not given", "units": {"Inhibition": "µM"}}
{"smiles": "N#Cc1cnc2ccc(NCc3c[nH]cn3)cc2c1Nc1ccc(F)c(Cl)c1", "Inhibition": "> 10"}
{"target": "MAP kinase-activated protein kinase 2 (Homo sapiens) (UniProt P49137)", "sequence (P49137 whole entry, looked up)": "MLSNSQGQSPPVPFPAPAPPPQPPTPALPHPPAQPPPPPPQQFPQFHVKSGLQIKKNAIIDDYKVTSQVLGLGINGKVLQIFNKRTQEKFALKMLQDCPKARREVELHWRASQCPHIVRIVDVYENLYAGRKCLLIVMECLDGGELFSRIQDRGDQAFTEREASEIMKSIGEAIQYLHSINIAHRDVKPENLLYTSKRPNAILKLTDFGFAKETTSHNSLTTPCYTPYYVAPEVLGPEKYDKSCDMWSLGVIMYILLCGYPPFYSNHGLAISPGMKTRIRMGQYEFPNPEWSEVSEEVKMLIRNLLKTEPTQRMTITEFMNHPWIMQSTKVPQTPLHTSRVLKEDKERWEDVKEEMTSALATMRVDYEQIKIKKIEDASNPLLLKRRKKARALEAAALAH", "experiment": "Inhibition of MK2", "conditions": "not given"}
{"smiles": "N#Cc1cnc2ccc(NCc3c[nH]cn3)cc2c1Nc1ccc(F)c(Cl)c1", "Activity": "inactive"}
{"tested_on": "Monocyte", "experiment": "Inhibition of p38 kinase phosphorylation in LPS-treated human monocytes", "type": "functional", "conditions": "not given", "units": {"Inhibition": "µM"}}
{"smiles": "N#Cc1cnc2ccc(NCc3c[nH]cn3)cc2c1Nc1ccc(F)c(Cl)c1", "Inhibition": 2.11}
{"tested_on": "Monocyte", "experiment": "Inhibition of cJun phosphorylation in LPS-treated human monocytes", "type": "functional", "conditions": "not given", "units": {"Inhibition": "µM"}}
{"smiles": "N#Cc1cnc2ccc(NCc3c[nH]cn3)cc2c1Nc1ccc(F)c(Cl)c1", "Inhibition": 5}
{"tested_on": "Monocyte", "experiment": "Inhibition of IkappaBalpha phosphorylation in LPS-treated human monocytes", "type": "functional", "conditions": "not given", "units": {"Inhibition": "µM"}}
{"smiles": "N#Cc1cnc2ccc(NCc3c[nH]cn3)cc2c1Nc1ccc(F)c(Cl)c1", "Inhibition": ">5"}
{"tested_on": "Monocyte", "experiment": "Inhibition of LPS-induced TNFalpha production in human monocytes by ELISA", "type": "functional", "conditions": "not given", "units": {"inhibitory concentration": "µM"}}
{"smiles": "Cc1[nH]cnc1CNc1ccc2ncc(C#N)c(Nc3ccc(F)c(Cl)c3)c2c1", "inhibitory concentration": 0.4}
{"smiles": "N#Cc1cnc2ccc(NCc3c[nH]cn3)cc2c1Nc1ccc(F)c(Cl)c1", "inhibitory concentration": 0.46}
{"smiles": "Cc1c(CNc2ccc3ncc(C#N)c(Nc4ccc(F)c(Cl)c4)c3c2)ncn1C", "inhibitory concentration": 0.4}
{"smiles": "N#Cc1cnc2ccc(NCc3nccs3)cc2c1Nc1ccc(F)c(Cl)c1", "inhibitory concentration": 0.6}
{"smiles": "Cc1ncn(CCN2CCOCC2)c1CNc1ccc2ncc(C#N)c(Nc3ccc(F)c(Cl)c3)c2c1", "inhibitory concentration": 0.7}
{"smiles": "N#Cc1cnc2ccc(NCc3cccc[n+]3[O-])cc2c1Nc1ccc(F)c(Cl)c1", "inhibitory concentration": 1.7}
{"tested_on": "Blood", "experiment": "Inhibition of LPS-induced TNFalpha production in human whole blood by ELISA", "type": "functional", "conditions": "not given", "units": {"inhibitory concentration": "µM"}}
{"smiles": "Cc1[nH]cnc1CNc1ccc2ncc(C#N)c(Nc3ccc(F)c(Cl)c3)c2c1", "inhibitory concentration": 7.9}
{"smiles": "N#Cc1cnc2ccc(NCc3c[nH]cn3)cc2c1Nc1ccc(F)c(Cl)c1", "inhibitory concentration": 3.3}
{"smiles": "Cc1c(CNc2ccc3ncc(C#N)c(Nc4ccc(F)c(Cl)c4)c3c2)ncn1C", "inhibitory concentration": 15.8}
{"smiles": "N#Cc1cnc2ccc(NCc3nccs3)cc2c1Nc1ccc(F)c(Cl)c1", "inhibitory concentration": ">20"}
{"smiles": "Cc1ncn(CCN2CCOCC2)c1CNc1ccc2ncc(C#N)c(Nc3ccc(F)c(Cl)c3)c2c1", "inhibitory concentration": 13.2}
{"smiles": "N#Cc1cnc2ccc(NCc3cccc[n+]3[O-])cc2c1Nc1ccc(F)c(Cl)c1", "inhibitory concentration": 7.8}
{"tested_on": "Mus musculus", "experiment": "Inhibition of LPS/D-gal-induced TNFalpha production in C57B1/6 mouse at 25 mg/kg, ip", "type": "functional", "conditions": "C57B1/6, ip, route intraperitoneal", "units": {"inhibition in vivo at 25 mg/kg": "%"}}
{"smiles": "N#Cc1cnc2ccc(NCc3c[nH]cn3)cc2c1Nc1ccc(F)c(Cl)c1", "inhibition in vivo at 25 mg/kg": 70}
{"tested_on": "Mus musculus", "experiment": "Inhibition of LPS/D-gal-induced TNFalpha production in C57B1/6 mouse at 50 mg/kg, ip", "type": "functional", "conditions": "C57B1/6, ip, route intraperitoneal", "units": {"inhibition in vivo at 50 mg/kg": "%"}}
{"smiles": "Cc1[nH]cnc1CNc1ccc2ncc(C#N)c(Nc3ccc(F)c(Cl)c3)c2c1", "inhibition in vivo at 50 mg/kg": 84}
{"smiles": "N#Cc1cnc2ccc(NCc3cccc[n+]3[O-])cc2c1Nc1ccc(F)c(Cl)c1", "inhibition in vivo at 50 mg/kg": 54}
{"tested_on": "Monocyte", "experiment": "Inhibition of MK2 phosphorylation in LPS-treated human monocytes", "type": "functional", "conditions": "not given", "units": {"Inhibition": "µM"}}
{"smiles": "N#Cc1cnc2ccc(NCc3c[nH]cn3)cc2c1Nc1ccc(F)c(Cl)c1", "Inhibition": ">5"}
{"target": "Mitogen-activated protein kinase kinase kinase 8 (Homo sapiens, UniProt P41279)", "sequence (P41279 whole entry)": "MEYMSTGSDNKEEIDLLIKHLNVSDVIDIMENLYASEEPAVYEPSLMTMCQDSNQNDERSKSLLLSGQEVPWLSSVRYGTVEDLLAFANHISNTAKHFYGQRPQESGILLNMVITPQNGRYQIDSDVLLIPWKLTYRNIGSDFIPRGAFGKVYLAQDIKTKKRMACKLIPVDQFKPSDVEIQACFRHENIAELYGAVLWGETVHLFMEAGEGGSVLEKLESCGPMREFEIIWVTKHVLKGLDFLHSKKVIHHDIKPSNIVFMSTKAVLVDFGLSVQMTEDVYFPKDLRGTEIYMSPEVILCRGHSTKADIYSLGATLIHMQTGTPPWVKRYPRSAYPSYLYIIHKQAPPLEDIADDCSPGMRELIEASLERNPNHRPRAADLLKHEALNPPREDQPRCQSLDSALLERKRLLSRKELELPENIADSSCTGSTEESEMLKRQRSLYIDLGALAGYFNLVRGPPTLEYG", "experiment": "Inhibition of Tpl2 kinase by ELISA", "conditions": "not given", "units": {"IC50": "nM"}}
{"smiles": "N#Cc1cnc2cc(OC(F)(F)F)c(NCc3cnc[nH]3)cc2c1Nc1ccc(F)c(Cl)c1", "IC50": "> 40000"}
{"smiles": "N#Cc1c(Nc2ccc(F)c(Cl)c2)c2cc(NCc3cnc[nH]3)ccc2[nH]c1=O", "IC50": "> 40000"}
{"smiles": "N#Cc1cnc2ccc(NCc3ccc(S(N)(=O)=O)cc3)cc2c1Nc1ccc(F)c(Cl)c1", "IC50": 110}
{"smiles": "N#Cc1cnc2ccc(NCc3ccccc3)cc2c1Nc1ccc(F)c(Cl)c1", "IC50": 210}
{"smiles": "Cc1[nH]cnc1CNc1ccc2ncc(C#N)c(Nc3ccc(F)c(Cl)c3)c2c1", "IC50": 3}
{"smiles": "N#Cc1cnc2ccc(CCc3ccccc3)cc2c1Nc1ccc(F)c(Cl)c1", "IC50": "> 10000"}
{"smiles": "N#Cc1cnc2ccc(NCCN3CCOCC3)cc2c1Sc1ccc(F)c(Cl)c1", "IC50": "> 10000"}
{"smiles": "N#Cc1cnc2ccc(NCCN3CCOCC3)cc2c1Oc1ccc(F)c(Cl)c1", "IC50": "> 40000"}
{"smiles": "CCN1CCC[C@H]1CNc1ccc2ncc(C#N)c(Nc3ccc(F)c(Cl)c3)c2c1", "IC50": 180}
{"smiles": "N#Cc1cccc(CNc2ccc3ncc(C#N)c(Nc4ccc(F)c(Cl)c4)c3c2)c1", "IC50": 100}
{"smiles": "Cc1nc2ccc(NCc3cnc[nH]3)cc2c(Nc2ccc(F)c(Cl)c2)c1C#N", "IC50": 19000}
{"smiles": "Cc1c(CNc2ccc3ncc(C#N)c(Nc4ccc(F)c(Cl)c4)c3c2)ncn1C", "IC50": 3}
{"smiles": "CC(C)Oc1cc2ncc(C#N)c(Nc3ccc(F)c(Cl)c3)c2cc1NCc1cnc[nH]1", "IC50": "> 40000"}
{"smiles": "N#Cc1cnc2ccc(Nc3ccccc3)cc2c1Nc1ccc(F)c(Cl)c1", "IC50": "> 40000"}
{"smiles": "N#Cc1cnc2ccc(NCc3ccccn3)cc2c1Nc1ccc(F)c(Cl)c1", "IC50": 90}
{"smiles": "CCN1CCC[C@@H]1CNc1ccc2ncc(C#N)c(Nc3ccc(F)c(Cl)c3)c2c1", "IC50": 7000}
{"smiles": "CC(Nc1ccc2ncc(C#N)c(Nc3ccc(F)c(Cl)c3)c2c1)c1ccccn1", "note": "(stereo not drawn)", "IC50": 60}
{"smiles": "N#Cc1cnc2cnc(NCc3ccccc3)cc2c1Nc1ccc(F)c(Cl)c1", "IC50": 140}
{"smiles": "CCc1ncc(CNc2ccc3ncc(C#N)c(Nc4ccc(F)c(Cl)c4)c3c2)[nH]1", "IC50": 640}
{"smiles": "N#Cc1cnc2ccc(NCc3cccc[n+]3[O-])cc2c1Nc1ccc(F)c(Cl)c1", "IC50": 11}
{"smiles": "N#Cc1cnc2ccc(NCC3CCCO3)cc2c1Nc1ccc(F)c(Cl)c1", "note": "(stereo not drawn)", "IC50": 2200}
{"smiles": "N#Cc1cnc2ccc(NS(=O)(=O)c3ccccc3)cc2c1Nc1ccc(F)c(Cl)c1", "IC50": 11500}
{"smiles": "N#Cc1cnc2ccc(NCC3CCCN3)cc2c1Nc1ccc(F)c(Cl)c1", "note": "(stereo not drawn)", "IC50": 30000}
{"target": "Dual specificity mitogen-activated protein kinase kinase 1 (Homo sapiens) (UniProt Q02750)", "sequence (Q02750 whole entry)": "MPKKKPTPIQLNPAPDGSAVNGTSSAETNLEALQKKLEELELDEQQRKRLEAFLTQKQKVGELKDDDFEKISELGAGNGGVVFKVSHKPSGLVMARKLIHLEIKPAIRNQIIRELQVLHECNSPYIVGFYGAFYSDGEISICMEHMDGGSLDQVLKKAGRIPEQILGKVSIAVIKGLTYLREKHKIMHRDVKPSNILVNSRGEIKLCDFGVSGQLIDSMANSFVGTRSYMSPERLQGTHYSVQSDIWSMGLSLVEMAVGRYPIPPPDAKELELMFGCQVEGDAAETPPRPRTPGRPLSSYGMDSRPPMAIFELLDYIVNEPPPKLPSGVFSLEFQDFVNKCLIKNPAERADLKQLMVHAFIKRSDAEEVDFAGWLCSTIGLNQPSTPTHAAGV", "experiment": "Inhibition of MEK", "conditions": "not given", "units": {"IC50": "nM"}}
{"smiles": "N#Cc1cnc2ccc(NCc3c[nH]cn3)cc2c1Nc1ccc(F)c(Cl)c1", "IC50": 2400}
{"target": "Proto-oncogene tyrosine-protein kinase Src (Homo sapiens) (UniProt P12931)", "sequence (P12931 2-536 limits assumed)": "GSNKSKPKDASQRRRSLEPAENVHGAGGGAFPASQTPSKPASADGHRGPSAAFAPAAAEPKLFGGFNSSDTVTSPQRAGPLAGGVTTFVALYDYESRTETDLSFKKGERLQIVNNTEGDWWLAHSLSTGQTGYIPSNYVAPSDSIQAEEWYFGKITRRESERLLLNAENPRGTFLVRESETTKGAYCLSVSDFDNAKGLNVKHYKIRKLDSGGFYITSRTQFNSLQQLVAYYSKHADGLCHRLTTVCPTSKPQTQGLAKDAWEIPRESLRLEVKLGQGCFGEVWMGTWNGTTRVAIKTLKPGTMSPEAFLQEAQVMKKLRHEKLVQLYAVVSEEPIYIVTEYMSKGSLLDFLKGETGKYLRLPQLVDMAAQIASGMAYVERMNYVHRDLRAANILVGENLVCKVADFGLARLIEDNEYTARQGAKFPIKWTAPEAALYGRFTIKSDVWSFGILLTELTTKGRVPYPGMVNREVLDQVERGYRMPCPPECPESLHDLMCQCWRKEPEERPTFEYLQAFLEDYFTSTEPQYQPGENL", "experiment": "Inhibition of Src kinase", "conditions": "not given"}
{"smiles": "N#Cc1cnc2ccc(NCc3c[nH]cn3)cc2c1Nc1ccc(F)c(Cl)c1", "Activity": "inactive"}
